Assay type in all cases: cell-based
The subject of experiment [1] is M2-10B4 marrow stromal cells. Put plainly: Alkaline phosphatase activity in M2-10B4 marrow stromal cells. Conditions: for Effect on Shh-induced alkaline phosphatase activity / Alkaline Phosphatase Activity: M2-10B4 cells. An excerpt: Alkaline phosphatase activity provides a measure of the osteogenic differentiation of cells. […] The oxysterol combination SS contains 22(S)-hydroxycholesterol and 20(S)-hydroxycholesterol in equal molar proportions. An indication of the molar concentration of the oxysterol combination SS refers to the molar concentration of each component of the combination.

The subject of a further experiment is M2-10B4 cells. Put plainly: Shh-induced osteocalcin mRNA expression in M2-10B4 cells. Conditions: 3 days, 1 μM to 10 μM, relative to Shh alone.
Experiment [2] has as its system C3H10T½ mouse embryonic fibroblasts. The experiment is described as follows: Alkaline phosphatase activity in C3H10T½ cells. Conditions: 1-10 μM.
For experiment [3] the test system is unchanged. The experiment is described as follows: Osteocalcin expression in C3H10T½ cells. Conditions: 1-10 μM.
Experiment [4] concerns Gli-luciferase reporter construct (8Xgli). The experiment is described as follows: Gli-luciferase reporter assay in M2-10B4 cells. The procedure: Activation or inhibition of the hedgehog pathway was assessed by measuring Gli-reporter activity. This provided a direct indication of the activation or inhibition of the hedgehog pathway. A first set of marrow stromal cells, M2-10B4, were transfected with a Gli-luciferase reporter construct (8Xgli) and a second set of M2-10B4 were transfected with an empty reporter construct without Gli response elements (pGL3b). […] Gli-luciferase reporter activity was tested after 48 hours of treatment. FIG. 1 presents the results of the study. Results from a representative experiment are shown as the mean of triplicate determinations±SD, and expressed as fold induction over control untreated cells.
Background: Reporter assays use an easily measured gene product as a stand-in for the process of interest.

A further experiment concerns Gli-1. The experiment is described as follows: Q-RT-PCR expression of hedgehog target gene Gli-1 in M2-10B4 cells. The procedure: (§1) Activation or inhibition of the hedgehog pathway was assessed by extracting RNA from test cells and using quantitative real time PCR (Q-RT-PCR) to measure the expression of the hedgehog target genes, Gli-1 and Patched (Ptch). […] Expression of Gli-1 and Patched (Ptch) was measured after 72 hours of treatment. FIGS. 2A and 2B present the results of the study. Results from a representative experiment are shown as the mean of triplicate determinations±SD, and expressed as fold induction over control untreated cells.

The next experiment concerns Patched (Ptch). Put plainly: Q-RT-PCR expression of hedgehog target gene Patched (Ptch) in M2-10B4 cells. The procedure:
as §1

The subject of a further experiment is LXRα and LXRβ. Put plainly: Inhibition of Shh-induced signaling and alkaline phosphatase activity in siRNA-transfected cells. Conditions: for Ability to inhibit Shh-induced signaling and alkaline phosphatase activity: cells transfected with LXRα and LXRβ siRNA; for Ability to inhibit Shh-induced signaling and alkaline phosphatase activity: blocked or not: cells transfected with control scrambled siRNA. The text has this:
Small interfering RNA (siRNA) to LXRα and LXRβ caused an 80-90% inhibition of mRNA expression for these genes, as well as inhibition of ligand-induced expression of LXR target genes, ATP-binding cassette (ABC) transporter proteins ABCA1 and ABCG1.

A further experiment has as its system marrow stromal cells. The experiment is described as follows: Osteogenic differentiation of marrow stromal cells. Conditions: for Effect on oxysterol-induced osteogenic differentiation: marrow stromal cells. The procedure: Certain osteogenic oxysterols, such as 20(S)-hydroxycholesterol (20S), induce the osteogenic differentiation of marrow stromal cells by activating the hedgehog signaling pathway. […] Thus, LXR activation can interfere with osteogenic differentiation induced by the activation of hedgehog signaling.
When treated with from 1-10 μM of GW3965 for 8 days, GW3965 inhibited Shh-induced alkaline phosphatase activity.

The subject of another experiment is hedgehog pathway. Put plainly: Net effect of LXR agonists on the hedgehog pathway. An excerpt: Thus, GW3965 is a hedgehog-inhibiting LXR agonist. […] Thus, 22(R)-hydroxycholesterol is a hedgehog-inhibiting LXR agonist. […] The Oxy13 compound is discussed in international application PCT/US2007/05073, which is hereby incorporated by reference.
A known hedgehog agonist is contacted with a model cell in an amount known to induce a hedgehog pathway response or hedgehog signaling response in the cell. Any cell that responds to a hedgehog agonist and an LXR agonist can be used as a model cell. The compound is then tested with an assay to measure the level of hedgehog activation or hedgehog signaling. One of skill in the art would know how to select an assay and conduct an assay to measure the level of hedgehog activation or hedgehog signaling. The hedgehog agonist will cause the level of hedgehog activation or signaling to increase above that of a control cell. While the hedgehog agonist is in contact with the cell, the compound being tested is also contacted with the cell. The level of hedgehog activation or signaling is measured. If introducing the compound decreases the level of hedgehog activation or signaling a statistically significant amount below the level when only the hedgehog agonist was in contact with the cell, then the compound is deemed a hedgehog-inhibiting LXR agonist.

The mark [5] stands for this setting: 72 hours, SS 5 μM + TO901317 5 μM.
[6] abbreviates: 72 hours, SS 5 μM + TO901317 10 μM.
Setting [7] is: 72 hours, Shh 100 ng/mL + TO901317 5 μM.
Where [8] appears, read: 72 hours, Shh 100 ng/mL + TO901317 10 μM.

Molecules are shown by their SMILES.

With `O=S(=O)(c1ccccc1)N(CC(F)(F)F)c1ccc(C(O)(C(F)(F)F)C(F)(F)F)cc1` [TO901317], in experiment [1] (3 days, concentrations as low as 1 μM), the “Effect on Shh-induced alkaline phosphatase activity” value is given as “inhibited”. Moreover, the results for the “Alkaline Phosphatase Activity” value in experiment [1] (SS 5 μM + TO901317 5 μM), in [1] (SS 5 μM + TO901317 10 μM) and in [1] (Shh 50 ng/ml + TO901317 5 μM) were 198 ± 17 units/mg protein ± SD, 61 ± 12 units/mg protein ± SD and 3±2 units/mg protein ± SD, respectively. For the same molecule, the “Effect on Shh-induced osteocalcin mRNA expression” value in the experiment on M2-10B4 cells was “inhibited”. Moreover, the “Effect on alkaline phosphatase activity” value in experiment [2] is listed as “inhibited”. Also, the “Effect on osteocalcin expression” value in experiment [3] is reported as “inhibited”. Besides, the Gli-luciferase reporter activity entry in experiment [4] (48 hours, SS 5 μM + TO901317 5 μM) is “about 2.5 fold induction over control un”; in experiment [4] (48 hours, SS 5 μM + TO901317 10 μM), “about the same level as of the control cells”; in experiment [4] (48 hours, Shh 200 ng/mL + TO901317 5 μM) it was “about the same level as of the control cells”; in [4] (TO901317 alone, 5 μM or 10 μM), “less than the control cells”. The Gli-1 expression result with Gli-1 (setting [5]) is recorded as “about 8 fold induction over control un”; in the experiment with Gli-1 (setting [6]) it was “about 7 fold induction over control un”; in the experiment with Gli-1 (setting [7]), “about 7 fold induction over control un”; in the experiment on Gli-1 (setting [8]) it was “about 3 fold induction over control un”; with Gli-1 (TO901317 alone, 5 μM or 10 μM) it was “less than the control cells”. Moreover, the Ptch expression entry is “about 6 fold induction over control un” in the experiment with Patched (Ptch) (setting [5]); “about the same level as that of the control cells” in the experiment on Patched (Ptch) (setting [7]); “about the same level as that of the control cells” in the experiment on Patched (Ptch) (setting [8]); “about the same as the control cells” in the experiment on Patched (Ptch) (TO901317 alone, 5 μM or 10 μM). The “Ptch expression (FIG. 2B; sentence prints Gli-1 expression)” value in the experiment on Patched (Ptch) (setting [6]) is reported as “about 4 fold induction over control un”. For the same molecule, in the experiment on LXRα and LXRβ, the “Ability to inhibit Shh-induced signaling and alkaline phosphatase activity” value is “blocked”. In the experiment on LXRα and LXRβ, the “Ability to inhibit Shh-induced signaling and alkaline phosphatase activity: blocked or not” value is listed as “not”. Besides, the “Effect on oxysterol-induced osteogenic differentiation” value in the experiment with marrow stromal cells is recorded as “block”. The “Net effect on the hedgehog pathway” value in the experiment on hedgehog pathway is listed as “inhibiting the hedgehog pathway”.

Take `CC(C)CCC[C@](C)(O)[C@H]1CC[C@H]2[C@@H]3CC=C4C[C@@H](O)CC[C@]4(C)[C@H]3CC[C@@]21C` [20(S)-hydroxycholesterol]: the “Induction of alkaline phosphatase activity” value in experiment [1] (marrow stromal cells M2-10B4, oxysterol alone) is “induce alkaline phosphatase activity”. For the same molecule, the “Net effect on the hedgehog pathway” value in the experiment with hedgehog pathway was “activating the hedgehog pathway”.

`C=C(C)CCC[C@](C)(O)C1CCC2C3CC=C4CC(O)CC[C@]4(C)C3CC[C@@]21C` (stereo partly drawn) [Oxy13]: the “Net effect on the hedgehog pathway” value with hedgehog pathway is recorded as “activating the hedgehog pathway”.

As to `O=C(O)Cc1cccc(OCCCN(Cc2cccc(C(F)(F)F)c2Cl)CC(c2ccccc2)c2ccccc2)c1` [GW3965, 3-[3-[[[2-chloro-3-(trifluoromethyl)phenyl]methyl](2,2-diphenylethyl)amino]propoxy]benzeneacetic acid], the “Effect on Shh-induced alkaline phosphatase activity” value in [1] (8 days, 1-10 μM) is on record as “inhibited”. In the experiment with LXRα and LXRβ, the “Ability to inhibit Shh-induced signaling and alkaline phosphatase activity” value is given as “blocked”; the “Ability to inhibit Shh-induced signaling and alkaline phosphatase activity: blocked or not” value is given as “not”. Also, the “Effect on Shh-induced osteogenic differentiation” value in the experiment on marrow stromal cells (M2-10B4 marrow stromal cells) is “inhibited”. For the same molecule, the “Effect on oxysterol-induced osteogenic differentiation” value with marrow stromal cells was “block”. The “Net effect on the hedgehog pathway” value in the experiment on hedgehog pathway is “inhibiting the hedgehog pathway”.

`C[C@H](CCCC(C)(C)O)[C@H]1CC[C@H]2[C@@H]3CC=C4C[C@@H](O)CC[C@]4(C)[C@H]3CC[C@]12C` [25-hydroxycholesterol]: the “Net effect on the hedgehog pathway” value in the experiment on hedgehog pathway was “leaves the hedgehog pathway active”.

Regarding `CC(C)CC[C@@H](O)[C@@H](C)[C@H]1CC[C@H]2[C@@H]3CC=C4C[C@@H](O)CC[C@]4(C)[C@H]3CC[C@]12C` [22(R)-hydroxycholesterol], the “Net effect on the hedgehog pathway” value in the experiment on hedgehog pathway is reported as “inhibiting the hedgehog pathway”.

The values are drawn from patent US20100048944A1, “INTERACTIONS OF HEDGEHOG AND LIVER X RECEPTOR SIGNALING PATHWAYS” (priority 2006, published 2010).
